Measurements published in ChEMBL document CHEMBL5236634, “Membrane-Targeting Neolignan-Antimicrobial Peptide Mimic Conjugates to Combat Methicillin-Resistant Staphylococcus aureus (MRSA) Infections” (J Med Chem, 2022).
The source made the active and inactive calls. The rule behind the calls is not given here.

Assays:
[1] = test system: Enterococcus faecalis; assay: Antibacterial activity against Enterococcus faecalis ATCC 29212 assessed as inhibition of bacterial growth incubated for 16 to 20 hrs by CLSI based microdilution method; assay type: functional; conditions: time 16-20 hrs
[2] = test system: Salmonella enterica; assay: Antibacterial activity against Salmonella enterica 8389 assessed as inhibition of bacterial growth incubated for 16 to 20 hrs by CLSI based microdilution method; assay type: functional; conditions: time 16-20 hrs
[3] = Hemolytic activity in sheep RBC incubated for 1 hr by absorbance based analysis; assay type: toxicity, cell-based, Ovis aries, Erythrocyte; conditions: sheep red blood cells
[4] = test system: Staphylococcus aureus; assay: Bactericidal activity against Staphylococcus aureus ATCC 29213 at 4 to 8 times MIC measured for 24 hrs by time kill assay; assay type: functional, organism-based
[5] = test system: Staphylococcus aureus; assay: Inhibition of biofilm formation in Staphylococcus aureus ATCC 29213 incubated for 24 hrs by crystalline violet staining based analysis; assay type: functional, organism-based; conditions: dose 0.125-64 µg/ml
[6] = test system: Staphylococcus aureus; assay: Antibiofilm activity against Staphylococcus aureus ATCC 29213 assessed as reduction in live bacteria in biofilm incubated for 24 hrs by crystal violet staining based analysis; assay type: functional, organism-based; conditions: dose 0-128 µg/ml
[7] = test system: Staphylococcus aureus; assay: Antibacterial activity against methicillin-resistant Staphylococcus aureus 15 incubated for 16 to 18 hrs in presence of phosphatidylglycerol by checkerboard microdilution assay; assay type: functional, organism-based; conditions: time 16-18 hrs
[8] = test system: Staphylococcus aureus; assay: Antibacterial activity against methicillin-resistant Staphylococcus aureus 15 incubated for 16 to 18 hrs in presence of phosphatidylethanolamine by checkerboard microdilution assay; assay type: functional, organism-based; conditions: time 16-18 hrs
[9] = Binding affinity to methicillin-resistant Staphylococcus aureus 15 phosphatidylglycerol assessed as dissociation constant by ITC method
[10] = Binding affinity to methicillin-resistant Staphylococcus aureus 15 cardiolipin assessed as dissociation constant by ITC method
[11] = test system: Cell membrane; assay: Induction of cell membrane disruption in methicillin-resistant Staphylococcus aureus 15 assessed as protein leakage at 1 to 6 times MIC incubated for 1 to 2 hrs; assay type: subcellular; conditions: time 1-2 hrs
[12] = test system: Staphylococcus aureus; assay: Upregulation of SPI gene expression in methicillin-resistant Staphylococcus aureus 15 assessed as log2 of fold change in gene expression at 8 ug/ml incubated for 6 hrs by transcriptome analysis; assay type: functional; conditions: dose 8 µg/ml
[13] = test system: Staphylococcus aureus; assay: Upregulation of rplJ gene expression in methicillin-resistant Staphylococcus aureus 15 assessed as log2 of fold change in gene expression at 8 ug/ml incubated for 6 hrs by transcriptome analysis; assay type: functional; conditions: dose 8 µg/ml
[14] = test system: Staphylococcus aureus; assay: Upregulation of YidC gene expression in methicillin-resistant Staphylococcus aureus 15 assessed as log2 of fold change in gene expression at 8 ug/ml incubated for 6 hrs by transcriptome analysis; assay type: functional; conditions: dose 8 µg/ml
[15] = test system: Staphylococcus aureus; assay: Downregulation of pgaC gene expression in methicillin-resistant Staphylococcus aureus 15 assessed as fold change in gene expression at 8 ug/ml incubated for 6 hrs by transcriptome analysis; assay type: functional; conditions: dose 8 µg/ml
[16] = Toxicity in BALB/c mouse assessed as effect on WBC count at 50 mg/kg, ip administered as single dose and measured after 24 hrs; assay type: organism-based; conditions: in vivo
[17] = Toxicity in BALB/c mouse assessed as effect on RBC count at 50 mg/kg, ip administered as single dose and measured after 24 hrs; assay type: organism-based, Erythrocyte; conditions: in vivo
[18] = Toxicity in BALB/c mouse assessed as effect on hemoglobin level at 50 mg/kg, ip administered as single dose and measured after 24 hrs; assay type: organism-based; conditions: in vivo
[19] = Toxicity in BALB/c mouse assessed as effect on platelet count at 50 mg/kg, ip administered as single dose and measured after 24 hrs; assay type: organism-based; conditions: in vivo
[20] = Toxicity in BALB/c mouse assessed as pathological changes in liver at 50 mg/kg, ip administered as single dose and measured after 24 hrs by H & E staining based analysis; assay type: organism-based; conditions: in vivo
[21] = Toxicity in BALB/c mouse assessed as pathological changes in spleen at 50 mg/kg, ip administered as single dose and measured after 24 hrs by H & E staining based analysis; assay type: organism-based; conditions: in vivo
[22] = test system: Staphylococcus aureus; assay: Antibacterial activity against methicillin-resistant Staphylococcus aureus 15 infected in BALB/c mouse sepsis model assessed as reduction in bacterial load in liver at 10 mg/kg, ip measured after 48 hrs; assay type: functional, organism-based
[23] = test system: Staphylococcus aureus; assay: Antibacterial activity against methicillin-resistant Staphylococcus aureus 15 infected in BALB/c mouse sepsis model assessed as reduction in bacterial load in kidney at 10 mg/kg, ip measured after 48 hrs; assay type: functional, organism-based
[24] = test system: Staphylococcus aureus; assay: Antibacterial activity against methicillin-resistant Staphylococcus aureus 15 infected in BALB/c mouse sepsis model assessed as reduction in inflammatory factors in organs at 10 mg/kg, ip measured after 48 hrs by H & E staining based analysis; assay type: functional, organism-based
[25] = test system: Staphylococcus aureus; assay: Antibacterial activity against methicillin-resistant Staphylococcus aureus 15 infected in BALB/c mouse sepsis model assessed as improvement in survival rate at 5 to 10 mg/kg, ip administered for 7 days; assay type: functional, organism-based; conditions: dose 5-10 mg/kg, time 7.0 day

SMILES	MIC [1] [µg/mL]	MIC [2] [µg/mL]	HC50 at 1 h [3] [µg/mL]	Activity [4]	inhibition [5]	Activity [6]	Activity [7]	Activity [8]	Activity [11]	Activity [16]	Activity [17]	Activity [18]	Activity [19]	Activity [20]	Activity [21]	Activity [22]	Activity [23]	Activity [24]	Activity [25]	other results
C=CCc1cccc(Oc2ccc(C(=O)CC)cc2)c1OCCC[N+](C)(C)CC(=O)NCCCCCC.[Br-]	2	32	916	Dose-Dependent Effect	Dose-Dependent Effect	Active	inactive	Active	Active	Non-Toxic	Non-Toxic	Non-Toxic	Non-Toxic	Non-Toxic	Non-Toxic	Active	Active	Active	Active	Kd [9]: 3430 nM; Kd [10]: 1330 nM; log2FC [12]: 1.96; log2FC [13]: 1.8; log2FC [14]: 1.27; log2FC [15]: -2.8
C=CCc1cccc(Oc2ccc(C(=O)CC)cc2)c1OCC[N+](C)(C)CC(=O)NCCCCCC.[Br-]	2	64	1110	Dose-Dependent Effect	Dose-Dependent Effect	Active	inactive	Active	Active	Non-Toxic	Non-Toxic	Non-Toxic	Non-Toxic	Non-Toxic	Non-Toxic	Active	Active	Active	Active	
